Source: publication PMC10471458 (BMB Reports, 2023)

Target: T1, Glutathione S-transferase omega 1 (mGstO1) (Mus musculus, UniProt O09131)
T1 sequence (O09131 2-240): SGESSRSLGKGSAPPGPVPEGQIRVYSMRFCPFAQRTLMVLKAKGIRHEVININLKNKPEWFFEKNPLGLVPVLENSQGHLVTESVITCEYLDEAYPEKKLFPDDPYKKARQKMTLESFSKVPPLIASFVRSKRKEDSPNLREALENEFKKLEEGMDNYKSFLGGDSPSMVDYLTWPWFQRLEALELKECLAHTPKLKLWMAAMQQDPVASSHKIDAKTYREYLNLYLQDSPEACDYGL
Type: biochemical

N[C@@H](CCC(=O)N[C@@H](CSCC(=O)c1ccc([N+](=O)[O-])cc1)C(=O)NCC(=O)O)C(=O)O [4-NPG, 4-nitrophenacyl glutathione]
spectrophotometric assay at 305 nm of 4-NPG reduction to 4-nitroacetophenone by: 10 U/mg
